Like-named read-outs stand apart in the source and are kept apart here.
Assays:
[1] = Screen of perfume components, perfume mixtures and oils for ability to solubilise climbazole
From the text: A number of perfume components, perfume mixtures and oils considered to be safe to use on scalp were screened to evaluate their ability to solubilise climbazole. Because emulsion polymerisation also encapsulates the solvent an efficient solvent is needed to get a high loading of climbazole into a microcapsule.

[2] = manufacturer's published literature; cited from earlier work
M. Furfur = experiment: ZOI test comparing with PS latex (Example 5); assay type: cell-based, Malassezia furfur; settings: ruptured by rubbing; 1 g shampoo of table 3 diluted with 3.9 g water and 0.1 g model sebum
Experimental: Zone of Inhibition (ZOI) Method • 1. L&N agar plates were appropriately labelled. • 2. 0.25 ml or 1 ml of quarter strength inoculum was pipetted onto the surface of each plate. • 3. The inoculum was spread evenly over the whole surface of the plates using a sterile spreader. • 4. Filter paper discs were added, in triplicate to the control plate and plates labelled 1 to 5 unruptured and left for 30 minutes in order to soak up any moisture from the agar. • 5. 15 μl of each (diluted, unruptured) formulation were pipetted onto each of the 3 discs in the appropriate agar plate. The liquid was allowed to soak into the disc. • 6. An additional disc was placed over the original discs in the control and 1 to 5 unruptured plates and the liquid allowed to soak into the additional discs. • 7. The discs from the previously ruptured samples were added in triplicate to separate Leeming and Notman agar plates and allowed to absorb moisture from the plates. • 8. […] Any zone of inhibition observed was measured and recorded.
The efficacy of climbazole microcapsules on the growth of M. Furfur measured using Zone of Inhibition (ZOI) when the microcapsules had been ruptured by simple rubbing to simulate hair washing was tested both for the solvent containing core shell microcapsules according to the invention and the latex particles according to the prior art. […]

## CCOC(=O)C=Cc1ccccc1 [Ethyl Cinnamate]
[1]; solvent screened at the solvent:climbazole ratios tested
  ability to solubilise climbazole: failed to solubilise it at any ratio tested

## CC(=O)OCc1ccccc1 [Benzyl Acetate]
[1]
  ratio of solvent to climbazole: 5:1

## CC(O)CO (stereo not drawn) [propylene glycol]
[1]
  ability to solubilise climbazole: failed to solubilise it at any ratio tested

## CC(C)(C)C(=O)C(Oc1ccc(Cl)cc1)n1ccnc1 (racemic) [climbazole, (RS)-1-(4-Chlorophenoxy)-1-imidazol-1-yl-3,3-dimethylbutan-2-one]
[2]
  solubility: soluble in alcohol, glycols, surfactants and certain perfume oils
M. Furfur
  Ruptured mean ZOI (mm): 1.00^1 mm

## Coconut oil
[1]
  ability to solubilise climbazole: failed to solubilise it at any ratio tested

From patent US20180311124A1, “CLIMBAZOLE MICROCAPSULE AND HAIR CARE COMPOSITION COMPRISING SURFACTANT AND CLIMBAZOLE” (priority 2015, published 2018)
